In patent US20140357688A1, “METHOD FOR INHIBITING EZH2 EXPRESSION IN BREAST CANCER CELLS” (Yung Shin Pharm. Ind. Co., Ltd., priority 2013, published 2014):
Peptide text beside a SMILES is read from it. * marks the point of attachment. Cbz = O=C(OCc1ccccc1)*

Columns and labels:
Format in all cases: cell-based, human
EZH2 [1] = assay: Western blot of EZH2 protein expression in MDA-MB-468 cells; conditions: for effect of inhibitor on YC-1-induced EZH2 inhibition: inhibitor pretreatment, then 3 μM YC-1 for 6 h
Experimental: Cells were harvested and performed with western blotting analysis. […] The levels of protein expression were quantitated and shown under blots. (C) Cells were transfected with EZH2 shRNA for 0, 1, 2, 3, and 4 days and collected for determination of cell viability (left) and protein expression (right). (D)(E) After 4 days of EZH2 knockdown, cells were incubated with 3 μM YC-1 for 4 h and detected cell viability (D) and protein contents (E). (F) Tumor specimens were isolated and protein was extracted for western blot analysis.
Cells were lysed in PBS containing proteinase inhibitor and phosphatase inhibitors and sonication. Protein concentration was measured using the Bio-Rad protein assay kit (Bio-Rad Laboratories, Hercules, Calif., USA). Lysate protein was separated by electrophoresis of SDS-PAGE and transferred to Immobilon P membrane (EMD Millipore). The membranes were incubated with appropriate primary antibodies and horseradish peroxidase-conjugated secondary antibodies (EMD Millipore). The signaling was visualized using Chemiluminescence substrate kit (EMD Millipore) and collected by the Luminesence image analyzer, LAS4000 (Fuji Photo Film Co., Tokyo, Japan). The band intensities were analyzed and quantified by the Multi Gauge software (Fuji Photo Film).

c-Cbl = assay: Western blot of c-Cbl phosphorylation and expression; conditions: pretreatment 1 h, then 3 μM YC-1 for 6 h
Experimental: (A) c-Cbl knockdown MDA-MB-468 cells were treated with 3 μM YC-1 for 4 h. Cell were harvested for detection of protein expression. (B) Cells were treated with 3 μM YC-1 for indicated time. Cells were collected and c-Cbl phosphorylation was detected. […] (D) Cells were pretreated with MG-132 and followed by 3 μM YC-1 induction for indicated time. Cells were harvested and lysed for immunoprecipitation assay. The association between c-Cbl and EZH2 were determined by western blotting analysis and probed with anti-EZH2 or anti-c-Cbl antibody. Membranes were stripped and reprobed with anti-c-Cbl or anti-EZH2 antibody to check the input. […] Then cells were collected and lysate protein was subjected for the detection of the c-Cbl-EZH2 complexes. Cells were lysed in PBS containing proteinase inhibitor and phosphatase inhibitors and sonication. Protein concentration was measured using the Bio-Rad protein assay kit (Bio-Rad Laboratories, Hercules, Calif., USA). Lysate protein was separated by electrophoresis of SDS-PAGE and transferred to Immobilon P membrane (EMD Millipore). The membranes were incubated with appropriate primary antibodies and horseradish peroxidase-conjugated secondary antibodies (EMD Millipore). The signaling was visualized using Chemiluminescence substrate kit (EMD Millipore) and collected by the Luminesence image analyzer, LAS4000 (Fuji Photo Film Co., Tokyo, Japan). The band intensities were analyzed and quantified by the Multi Gauge software (Fuji Photo Film).

MDA-MB-468 = assay: MTT cell viability assay; conditions: for effect of inhibitor on YC-1-induced inhibition of cell viability: inhibitor pretreatment, then 3 μM YC-1 for 6 h
Experimental: (A) Cells were treated with indicated concentration of YC-1 for 6, 24, and 48 h. Cell viability was determined by MTT method. (B) MDA-MB-468 cells were treated with 3 μM YC-1 for 0, 6, and 12 h, and then stained with fluorescence diacetate (FDA) and propidium iodide (PI). Cell morphology was assessed by fluorescence microscopy with magnification ×20 (upper 3 rows) or ×40 (lowest row). (C) MDA-MB-468 cells were treated with 3 μM YC-1 for 24 h, cells were lysed and subjected to western blot analysis described in Materials and Methods. β-actin is a loading control. Blots were representative of results from three independent experiments. (D) Cells were treated with vehicle (DMSO, as control) or 3 μM YC-1 for 6 h. The cell cycles were analyzed by flow cytometry. (E) Cells were treated with indicated concentration of YC-1 and then performed with clonogenic assay.
Human breast cancer cells, MDA-MB-468, MDA-MB-157, MDA-MB-231, MDA-MB-453, and Hs578T, and immortalized mammary epithelial cell lines, 184A1 and MCF-10A, were obtained from American Type Culture Collection (Manassas, Va., USA). MDA-MB-468, MDA-MB-157, MDA-MB-231, and MDA-MB-453 were cultured in DMEM/F12 medium supplemented with 10% FBS, 100 U/ml penicillin, and 100 μg/ml streptomycin. Hs578T was cultured in RPMI 1640 medium containing 10% FBS, 2 mM L-glutamine, 100 U/ml penicillin, and 100 μg/ml streptomycin. 184A1 and MCF-10A were cultured in DMEM/F12 medium supplemented with 5% horse serum, 0.5 μg/ml hydrocortisone, 10 μg/ml insulin, 20 ng/ml epidermal growth factor, 0.1 μg/ml cholera enterotoxin, 2 mM L-glutamine, 100 U/ml penicillin, and 100 μg/ml streptomycin. All cells were maintained in a humidified incubator containing 5% CO2. For hypoxia treatment, cells were incubated in a chamber flushed with 1% 02, 5% CO2, and 94% N2 at 37° C.
Cell viability was measured by 3-(4,5-Dimethyl-2-thiazolyl)2,5-diphenyl-2H-tetrazolium bromide (MTT) assay.

EZH2 [2] = assay: EZH2 ubiquitination assay; conditions: inhibitor pretreatment, then 3 μM YC-1
Experimental: (A) Cells were pretreated with cyclohexamide (30 μM) for 1 h and followed by induction with vehicle (DMSO) or YC-1 (3 μM) for indicated time. Cells were harvested for detection of protein expression. (B)(C) Cells were incubated with 3 μM YC-1 for 6 h in the presence of vehicle, 3 μM MG-132 or 30 μM NH4Cl. Cells were harvested for detection of protein expression (B) or cell viability assay (C). The levels of protein expression were quantitated and shown under blots. (D) After treatment of 3 μM YC-1 for indicated time, cells were harvested and lysed for immunoprecipitation and western blot analysis described in Materials and Methods.
Cells were lysed with MLB buffer (25 mM HEPES, pH 7.5, 150 mM NaCl, 1% Igepal CA-630, 10 mM MgCl2, 1 mM EDTA, 2% glycerol, 1 mM Na3VO4, 1 mM NaF, 1 mM PMSF, 10 μg/ml of leupeptin, aprotinin, and pepstatin A). After sonication, cell lysates were centrifugated at 12,000×g for 10 min at 4° C. Supernatants were incubated with anti-EZH2 antibody (BD Biosciences) and protein A Sepharose beads (GE Health Care) overnight at 4° C. After washing with MLB buffer, precipitated proteins were boiled in 1× Laemmli sample buffer and then separated with SDS-PAGE. The ubiquitination levels of EZH2 were recognized by using anti-Ubiquitn monoclonal antibody.

EZH2-c-Cbl-ERK = assay: Co-immunoprecipitation of c-Cbl and EZH2; conditions: PD98059 10 μM with MG-132, then 2 h 3 μM YC-1
Experimental: (A) c-Cbl knockdown MDA-MB-468 cells were treated with 3 μM YC-1 for 4 h. Cell were harvested for detection of protein expression. (B) Cells were treated with 3 μM YC-1 for indicated time. Cells were collected and c-Cbl phosphorylation was detected. (C) Cells were pretreated with MG-132 (3 μM) or NH4Cl (30 μM) for 1 h followed by 3 μM YC-1 induction for 6 h. (D) Cells were pretreated with MG-132 and followed by 3 μM YC-1 induction for indicated time. Cells were harvested and lysed for immunoprecipitation assay. The association between c-Cbl and EZH2 were determined by western blotting analysis and probed with anti-EZH2 or anti-c-Cbl antibody. Membranes were stripped and reprobed with anti-c-Cbl or anti-EZH2 antibody to check the input. (E) Cells were preincubated with or without PD98059 (10 μM) in the presence of MG-132 for 1 h prior to 2 h-treatment of 3 μM YC-1. Then cells were collected and lysate protein was subjected for the detection of the c-Cbl-EZH2 complexes.
Cells were lysed with RIPA buffer (50 mM Tris-C1, pH 7.5, 1% Igepal CA-630, 150 mM NaCl, 1 mM EDTA, 1 mM Na3VO4, 1 mM NaF, 1 mM PMSF, 10 μg/ml of leupeptin, aprotinin, and pepstatin A) for 30 min at 4° C. One milligram of cell lysate was incubated with anti-EZH2 or anti-c-Cbl antibody and protein A-Sepharose beads, then gently rotated at 4° C. overnight. […]

## Cl.N [NH4Cl, reference compound]
EZH2 [1]
  effect of inhibitor on YC-1-induced EZH2 inhibition: not
c-Cbl
  effect of inhibitor on YC-1-induced inhibition of c-Cbl: not

## COC(=O)[C@@]1(OC)C[C@H]2O[C@]1(C)n1c3ccccc3c3c4c(c5c6ccccc6n2c5c31)C(=O)N(C)C4 [KT5823]
MDA-MB-468
  effect of inhibitor on YC-1-induced inhibition of cell viability: failed to have effects
EZH2 [1]
  effect of inhibitor on YC-1-induced EZH2 inhibition: failed to have effects

## Nc1nccc2c1ncn2[C@@H]1C=C(CO)[C@@H](O)[C@H]1O [DZNep, 3-deazaneplanocin A]
MDA-MB-468; DZNep, 24 h, ten folds of concentration higher than YC-1
  activation of apoptosis / cell viability: failed to inhibit EZH2 and activate apoptosis
EZH2 [1]; DZNep 3, 10, 30 μM, 24 h, ten folds of concentration higher than YC-1
  EZH2 inhibition: failed to inhibit EZH2

## COc1cccc(-c2cc(=O)c3ccccc3o2)c1N [PD98059]
MDA-MB-468
  effect of inhibitor on YC-1-induced inhibition of cell viability: almost completely abolished
EZH2 [1]
  effect of inhibitor on YC-1-induced EZH2 inhibition: almost completely abolished
EZH2 [2]
  effect of inhibitor on YC-1-induced EZH2 ubiquitination: could be blocked
EZH2-c-Cbl-ERK
  effect of inhibitor on EZH2-c-Cbl-ERK complex: could be disrupted

## O=c1onc2n1-c1cc(Br)ccc1OC2 [NS2028]
MDA-MB-468
  effect of inhibitor on YC-1-induced inhibition of cell viability: failed to have effects
EZH2 [1]
  effect of inhibitor on YC-1-induced EZH2 inhibition: failed to have effects

## O=c1onc2cnc3ccccc3n12 [ODQ]
MDA-MB-468
  effect of inhibitor on YC-1-induced inhibition of cell viability: failed to have effects
EZH2 [1]
  effect of inhibitor on YC-1-induced EZH2 inhibition: failed to have effects

## CC(C)C[C@@H](C=O)NC(=O)[C@H](CC(C)C)NC(=O)[C@H](CC(C)C)NC(=O)OCc1ccccc1 [MG-132] (Cbz-Leu-Leu-Leu-aldehyde)
MDA-MB-468
  effect of inhibitor on YC-1-induced inhibition of cell viability: reversed the YC-1-induced inhibition of cell viability
EZH2 [1]
  effect of inhibitor on YC-1-induced EZH2 inhibition: significantly prevented EZH2 degradation
c-Cbl
  effect of inhibitor on YC-1-induced inhibition of c-Cbl: could be reversed

## CC(C)=CCC/C(C)=C/CC/C(C)=C/CSc1ccccc1C(=O)O [farnyesyl thiosalicylic acid]
EZH2 [1]
  effect of inhibitor on YC-1-induced EZH2 inhibition: had no effect

## CCCC[C@@H](C)/C=C(C)/C=C(\C)C(=O)NC1=C[C@@](O)(/C=C/C=C/C=C/C(=O)NC2=C(O)CCC2=O)[C@@H]2O[C@@H]2C1=O [manumycin A]
EZH2 [1]
  effect of inhibitor on YC-1-induced EZH2 inhibition: failed to influent

## COc1cc2ncnc(Nc3ccc(Oc4ccccc4)cc3)c2cc1OC [SrcI]
MDA-MB-468
  effect of inhibitor on YC-1-induced inhibition of cell viability: attenuated
EZH2 [1]
  effect of inhibitor on YC-1-induced EZH2 inhibition: attenuated
EZH2 [2]
  effect of inhibitor on YC-1-induced EZH2 ubiquitination: significantly suppressed

## O=c1c(-c2ccc(O)cc2)coc2cc(O)cc(O)c12 [genistein]
MDA-MB-468
  effect of inhibitor on YC-1-induced inhibition of cell viability: attenuated
EZH2 [1]
  effect of inhibitor on YC-1-induced EZH2 inhibition: attenuated
EZH2 [2]
  effect of inhibitor on YC-1-induced EZH2 ubiquitination: significantly suppressed

## CNC(=O)c1cc(Oc2ccc(NC(=O)Nc3ccc(Cl)c(C(F)(F)F)c3)cc2)ccn1 [Bay-43-9006]
MDA-MB-468
  effect of inhibitor on YC-1-induced inhibition of cell viability: attenuated
EZH2 [1]
  effect of inhibitor on YC-1-induced EZH2 inhibition: attenuated
EZH2 [2]
  effect of inhibitor on YC-1-induced EZH2 ubiquitination: significantly suppressed

## COc1cc2ncnc(Nc3cccc(Cl)c3)c2cc1OC [AG1478]
EZH2 [1]
  effect of inhibitor on YC-1-induced EZH2 inhibition: not affected
EZH2 [2]
  effect of inhibitor on YC-1-induced EZH2 ubiquitination: not

## CC[C@H](CO)Nc1nc(NCc2ccccc2)c2ncn(C(C)C)c2n1 [roscovitine]
MDA-MB-468
  effect of inhibitor on YC-1-induced inhibition of cell viability: failed to modulate
EZH2 [1]
  effect of inhibitor on YC-1-induced EZH2 inhibition: failed to modulate
